Tests used:
[1] = biological target: His-tagged KRAS G12D protein (Homo sapiens, UniProt P01116, G12D); test: biochemical
[2] = tested on: Phosphorylation of ERK1/2 in AsPC-1 cells; test: Phospho-ERK1/2 MSD Assay; format: cell-based; conditions: Homo sapiens, ASPC1, 2 h, read-out: 2 h p-ERK (AsPC-1 cells), IC50, AsPC-1 cells, 2 h compound treatment
Description: Sixteen hours prior to compound treatment, AsPC-1 cells were seeded in 96-well cell culture plates at a density of 25,000 cells/well and incubated at 37° C., 5% CO2. A compound dose-response titration was diluted in growth media, added to appropriate wells of a cell culture plate, and then incubated at 37° C., 5% CO2 for 2 hours.

His-tagged KRAS G12D protein, sequence (P01116 1-188 isoform P01116-2 G12D): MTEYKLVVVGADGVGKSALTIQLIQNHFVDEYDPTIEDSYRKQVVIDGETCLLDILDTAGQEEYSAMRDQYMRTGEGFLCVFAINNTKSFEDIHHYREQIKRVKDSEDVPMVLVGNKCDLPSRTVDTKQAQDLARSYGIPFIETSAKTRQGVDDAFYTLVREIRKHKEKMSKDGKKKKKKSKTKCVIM

IC50 [1] | IC50 [2] | Structure (SMILES)
2 nM | 253 nM | CCc1c(F)ccc2cc(O)cc(-c3ncc4c(N5CCCCC[C@H]5C)nc(OC[C@@]56CCCN5C[C@H](F)C6)nc4c3F)c12 [Example 80, 5-Ethyl-6-fluoro-4-(8-fluoro-2-(((2R,7aS)-2-fluorotetrahydro-1H-pyrrolizin-7a(5H)-yl)methoxy)-4-((R)-2-methylazepan-1-yl)pyrido[4,3-d]pyrimidin-7-yl)naphthalen-2-ol]
19 nM | 1160 nM | CCc1c(F)ccc2cc(O)cc(-c3ncc4c(N5CCCCC[C@@H]5C)nc(OC[C@@]56CCCN5C[C@H](F)C6)nc4c3F)c12 [Example 81, 5-Ethyl-6-fluoro-4-(8-fluoro-2-(((2R,7aS)-2-fluorotetrahydro-1H-pyrrolizin-7a(5H)-yl)methoxy)-4-((S)-2-methylazepan-1-yl)pyrido[4,3-d]pyrimidin-7-yl)naphthalen-2-ol]
33 nM | > 10000 nM | CCc1c(F)ccc2cc(O)cc(-c3ncc4c(N5CC(CS(N)(=O)=O)C5)nc(OC[C@@]56CCCN5C[C@H](F)C6)nc4c3F)c12 [Example 82, (1-(7-(8-Ethyl-7-fluoro-3-hydroxynaphthalen-1-yl)-8-fluoro-2-(((2R,7aS)-2-fluorotetrahydro-1H-pyrrolizin-7a(5H)-yl)methoxy)pyrido[4,3-d]pyrimidin-4-yl)azetidin-3-yl)methanesulfonamide]
2 nM | > 10000 nM | CCc1c(F)ccc2cc(O)cc(-c3ncc4c(N5CC(O)(C(N)=O)C5)nc(OC[C@@]56CCCN5C[C@H](F)C6)nc4c3F)c12 [Example 83, 1-(7-(8-Ethyl-7-fluoro-3-hydroxynaphthalen-1-yl)-8-fluoro-2-(((2R,7aS)-2-fluorotetrahydro-1H-pyrrolizin-7a(5H)-yl)methoxy)pyrido[4,3-d]pyrimidin-4-yl)-3-hydroxyazetidine-3-carboxamide]
5 nM | 1290 nM | CCc1c(F)ccc2cc(O)cc(-c3ncc4c(N5CCCC(S(C)(=O)=O)C5)nc(OC[C@@]56CCCN5C[C@H](F)C6)nc4c3F)c12 (stereo partly drawn) [Example 84, 5-Ethyl-6-fluoro-4-(8-fluoro-2-(((2R,7aS)-2-fluorotetrahydro-1H-pyrrolizin-7a(5H)-yl)methoxy)-4-(3-(methylsulfonyl)piperidin-1-yl)pyrido[4,3-d]pyrimidin-7-yl)naphthalen-2-ol]
37 nM | > 10000 nM | CCc1c(F)ccc2cc(O)cc(-c3ncc4c(N5CCC(S(N)(=O)=O)CC5)nc(OC[C@@]56CCCN5C[C@H](F)C6)nc4c3F)c12 [Example 85, 1-(7-(8-Ethyl-7-fluoro-3-hydroxynaphthalen-1-yl)-8-fluoro-2-(((2R,7aS)-2-fluorotetrahydro-1H-pyrrolizin-7a(5H)-yl)methoxy)pyrido[4,3-d]pyrimidin-4-yl)piperidine-4-sulfonamide]
64 nM | > 10000 nM | CCc1c(F)ccc2cc(O)cc(-c3ncc4c(N5CCC(S(N)(=O)=O)C5)nc(OC[C@@]56CCCN5C[C@H](F)C6)nc4c3F)c12 (stereo partly drawn) [Example 86, 1-(7-(8-Ethyl-7-fluoro-3-hydroxynaphthalen-1-yl)-8-fluoro-2-(((2R,7aS)-2-fluorotetrahydro-1H-pyrrolizin-7a(5H)-yl)methoxy)pyrido[4,3-d]pyrimidin-4-yl)pyrrolidine-3-sulfonamide]
63 nM | > 10000 nM | CCc1c(F)ccc2cc(O)cc(-c3ncc4c(N5CC(S(N)(=O)=O)C5)nc(OC[C@@]56CCCN5C[C@H](F)C6)nc4c3F)c12 [Example 87, 1-(7-(8-Ethyl-7-fluoro-3-hydroxynaphthalen-1-yl)-8-fluoro-2-(((2R,7aS)-2-fluorotetrahydro-1H-pyrrolizin-7a(5H)-yl)methoxy)pyrido[4,3-d]pyrimidin-4-yl)azetidine-3-sulfonamide]
6 nM | > 10000 nM | CCc1c(F)ccc2cc(O)cc(-c3ncc4c(N5CC(C(N)=O)C5)nc(OC[C@@]56CCCN5C[C@H](F)C6)nc4c3F)c12 [Example 88, 1-(7-(8-Ethyl-7-fluoro-3-hydroxynaphthalen-1-yl)-8-fluoro-2-(((2R,7aS)-2-fluorotetrahydro-1H-pyrrolizin-7a(5H)-yl)methoxy)pyrido[4,3-d]pyrimidin-4-yl)azetidine-3-carboxamide]
9 nM | > 3000 nM | CCc1c(F)ccc2cc(O)cc(-c3ncc4c(N5CCCC(C(=O)NC)C5)nc(OC[C@@]56CCCN5C[C@H](F)C6)nc4c3F)c12 (stereo partly drawn) [Example 89, 1-(7-(8-Ethyl-7-fluoro-3-hydroxynaphthalen-1-yl)-8-fluoro-2-(((2R,7aS)-2-fluorotetrahydro-1H-pyrrolizin-7a(5H)-yl)methoxy)pyrido[4,3-d]pyrimidin-4-yl)-N-methylpiperidine-3-carboxamide]
83 nM | 6620 nM | CCc1c(F)ccc2cc(O)cc(-c3ncc4c(N5CC(C)(O)C5)nc(OC[C@@]56CCCN5C[C@H](F)C6)nc4c3F)c12 [Example 92, 1-(7-(8-Ethyl-7-fluoro-3-hydroxynaphthalen-1-yl)-8-fluoro-2-(((2R,7aS)-2-fluorotetrahydro-1H-pyrrolizin-7a(5H)-yl)methoxy)pyrido[4,3-d]pyrimidin-4-yl)-3-methylazetidin-3-ol]
2 nM | 100 nM | CCc1c(F)ccc2cc(O)cc(-c3ncc4c(N5CCCCCCC5)nc(OC[C@@]56CCCN5C[C@H](F)C6)nc4c3F)c12 [Example 93, 4-(4-(Azocan-1-yl)-8-fluoro-2-(((2R,7aS)-2-fluorotetrahydro-1H-pyrrolizin-7a(5H)-yl)methoxy)pyrido[4,3-d]pyrimidin-7-yl)-5-ethyl-6-fluoronaphthalen-2-ol]
33 nM | 1560 nM | CCc1c(F)ccc2cc(O)cc(-c3ncc4c(N5CC6CCC(C5)C6O)nc(OC[C@@]56CCCN5C[C@H](F)C6)nc4c3F)c12 (stereo partly drawn) [Example 97, 3-(7-(8-Ethyl-7-fluoro-3-hydroxynaphthalen-1-yl)-8-fluoro-2-(((2R,7aS)-2-fluorotetrahydro-1H-pyrrolizin-7a(5H)-yl)methoxy)pyrido[4,3-d]pyrimidin-4-yl)-3-azabicyclo[3.2.1]octan-8-ol]
80 nM | 2840 nM | CCc1c(F)ccc2cc(O)cc(-c3ncc4c(N5CC6CCC(C5)C6(C)O)nc(OC[C@@]56CCCN5C[C@H](F)C6)nc4c3F)c12 (stereo partly drawn) [Example 98, 3-(7-(8-Ethyl-7-fluoro-3-hydroxynaphthalen-1-yl)-8-fluoro-2-(((2R,7aS)-2-fluorotetrahydro-1H-pyrrolizin-7a(5H)-yl)methoxy)pyrido[4,3-d]pyrimidin-4-yl)-8-methyl-3-azabicyclo[3.2.1]octan-8-ol]
11 nM | 794 nM | CCc1c(F)ccc2cc(O)cc(-c3ncc4c(N5CCC6CC6(O)C5)nc(OC[C@@]56CCCN5C[C@H](F)C6)nc4c3F)c12 (stereo partly drawn) [Example 99, 3-(7-(8-Ethyl-7-fluoro-3-hydroxynaphthalen-1-yl)-8-fluoro-2-(((2R,7aS)-2-fluorotetrahydro-1H-pyrrolizin-7a(5H)-yl)methoxy)pyrido[4,3-d]pyrimidin-4-yl)-3-azabicyclo[4.1.0]heptan-1-ol]
2 nM | 1900 nM | CCc1c(F)ccc2cc(O)cc(-c3ncc4c(N5C[C@H](O)C[C@@H](O)C5)nc(OC[C@@]56CCCN5C[C@H](F)C6)nc4c3F)c12 [Example 102, (3R,5R)-1-(7-(8-Ethyl-7-fluoro-3-hydroxynaphthalen-1-yl)-8-fluoro-2-(((2R,7aS)-2-fluorotetrahydro-1H-pyrrolizin-7a(5H)-yl)methoxy)pyrido[4,3-d]pyrimidin-4-yl)piperidine-3,5-diol]
9 nM | 939 nM | CCc1c(F)ccc2cc(O)cc(-c3ncc4c(N5CC6CCC(C6)C5)nc(OC[C@@]56CCCN5C[C@H](F)C6)nc4c3F)c12 [Example 105, 4-(4-(3-Azabicyclo[3.2.1]octan-3-yl)-8-fluoro-2-(((2R,7aS)-2-fluorotetrahydro-1H-pyrrolizin-7a(5H)-yl)methoxy)pyrido[4,3-d]pyrimidin-7-yl)-5-ethyl-6-fluoronaphthalen-2-ol]
9 nM | > 10000 nM | CCc1c(F)ccc2cc(O)cc(-c3ncc4c(N5C[C@H](O)[C@@H](O)C5)nc(OC[C@@]56CCCN5C[C@H](F)C6)nc4c3F)c12 [Example 117, (3S,4S)-1-(7-(8-Ethyl-7-fluoro-3-hydroxynaphthalen-1-yl)-8-fluoro-2-(((2R,7aS)-2-fluorotetrahydro-1H-pyrrolizin-7a(5H)-yl)methoxy)pyrido[4,3-d]pyrimidin-4-yl)pyrrolidine-3,4-diol]
3 nM | 105 nM | CCc1c(F)ccc2cc(O)cc(-c3ncc4c(N5CC(O)CC(F)(F)C5)nc(OC[C@@]56CCCN5C[C@H](F)C6)nc4c3F)c12 (stereo partly drawn) [Example 118, 1-(7-(8-Ethyl-7-fluoro-3-hydroxynaphthalen-1-yl)-8-fluoro-2-(((2R,7aS)-2-fluorotetrahydro-1H-pyrrolizin-7a(5H)-yl)methoxy)pyrido[4,3-d]pyrimidin-4-yl)-5,5-difluoropiperidin-3-ol]
4 nM | 222 nM | CCc1c(F)ccc2cc(O)cc(-c3ncc4c(N5CCC(O)C(F)(F)CC5)nc(OC[C@@]56CCCN5C[C@H](F)C6)nc4c3F)c12 (stereo partly drawn) [Example 120, 1-(7-(8-Ethyl-7-fluoro-3-hydroxynaphthalen-1-yl)-8-fluoro-2-(((2R,7aS)-2-fluorotetrahydro-1H-pyrrolizin-7a(5H)-yl)methoxy)pyrido[4,3-d]pyrimidin-4-yl)-5,5-difluoroazepan-4-ol]
37 nM | 3340 nM | CCc1c(F)ccc2cc(O)cc(-c3ncc4c(N5CCC[C@@H](C(=O)OC)C5)nc(OC[C@@]56CCCN5C[C@H](F)C6)nc4c3F)c12 [Example 126, Methyl (R)-1-(7-(8-ethyl-7-fluoro-3-hydroxynaphthalen-1-yl)-8-fluoro-2-(((2R,7aS)-2-fluorotetrahydro-1H-pyrrolizin-7a(5H)-yl)methoxy)pyrido[4,3-d]pyrimidin-4-yl)piperidine-3-carboxylate]

Source: patent US20250034167A1, “HETEROCYCLIC COMPOUNDS AND METHODS OF USE” (AMGEN INC., priority 2021, published 2025)
